Holding throughout (assay type): cell-based
Experiment [1] relates to mixed culture of slime-forming bacteria. The experiment in a line: Bactericidal test on a mixed culture of slime-forming bacteria in saline. Particulars: 30 ppm, start 10^7 organisms/ml in saline. The protocol: A mixed culture of slime-forming bacteria including Pseudomonas aeruginosa, Enterobacter aerogenes, Escherichia coli, Proteus vulgaris, Bacillus mycoides and Staphylococcus aureus in saline containing 10^7 organisms/ml was treated with 30 ppm of the product of Example 2.

The subject of the next experiment is Tribonema aequale. Description: Test demonstrating algistatic activity. As to conditions: 504 h, 3 week incubation, shaking water bath, read-out: Minimum inhibitory Concentration, MIC. As for the experimental part: (§1) The organisms against which the compounds are to be tested are grown in an Erlenmeyer flask in a nutrient medium under sterile conditions on a shaking water bath at 18° C. with exposure (14 hours in light alternating with 10 hours in the dark).
(§2) Tests are carried out against three algae, namely the blue algae
and the algae with brown chromatophors
(c) the widespread, unbranched filament-forming Tribonema aequale (C) occurring in bodies of water especially in the spring at low temperature or in the autumn, even in mild winters.
(§3) The composition of the medium is as follows (according to Algae broth, Difco Laboratories):
(§4) dissolved in 1 liter of distilled water. The nutrient medium treated with the biocide is innoculated with the respective algae suspension such that a final dilution of 1/100 (algae divided with a stirrer) is attained. Evaluation is made after a 3 week incubation in the Erlenmeyer flask on a shaking water bath.

In a further experiment the test system is Phormidium foveolarum. The experiment in a line: Test demonstrating algistatic activity. As to conditions: Nodosilinea foveolarum, 504 h, 3 week incubation, shaking water bath, read-out: Minimum inhibitory Concentration, MIC. The protocol:
as §1, §2
(a) Phormidium foveolarum (A) which lives in polluted water or moist earth and forms trichomes;
as §3, §4

The next experiment deals with Ulothrix subtilissima. The experiment in a line: Test demonstrating algistatic activity. Particulars: Klebsormidium subtilissimum, 504 h, 3 week incubation, shaking water bath, read-out: Minimum inhibitory Concentration, MIC. As for the experimental part: as §1, §2
(b) the simple filament-forming Ulothrix subtilissima (B) generally found at colder times of the year in rapidly flowing water;
as §3, §4

The results in this text go back to patent US4363923A, “4-Halgeno-oxetan-2-ones and process for their production” (Ciba-Geigy Corporation, priority 1980, dated 1982).

≈ marks a conversion by molar mass, not a printed value.

On to `O=C1CC(Cl)(CC(Cl)(Cl)Cl)O1` (centres unmarked) [Example 2, 4-chloro-4-(2,2,2-trichloroethyl)oxetan-2-one], for which the “number of organisms reduced to” value in experiment [1] (after one hour) is listed as 10^2 organisms/ml. In addition, the killing of bacteria result in experiment [1] (within 24 hours) is on record as “all the bacteria had been killed”. In addition, the MIC with Tribonema aequale, in the experiment with Phormidium foveolarum and in the experiment with Ulothrix subtilissima was 30 µg/mL (≈ 126 µM) each time.
